T/C data for 20 compounds are collected here from PubChem BioAssay AID248 (DTP/NCI, 2004).

“And” between values parts separate entries of the source, which are not always exact repeats. Equal entries are not always repeated. Inconclusive results and toxic doses are left out.

This assay relates to L1210 leukemia ip in BDF1 mice, survival T/C. The assay is described as follows: NCI In Vivo Anticancer Drug Screen. Data for tumor model L1210 Leukemia (intraperitoneal) in B6D2F1 (BDF1) mice. The conditions noted are these: endpoint: mean survival time, higher = longer survival. A digest of the protocol:
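In this screen, tumor-bearing mice given compound are compared to those given vehicle, and their survival values are reported as a treated-to-control quotient.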

[1] abbreviates: dose: 100.0 mg/kg/injection, schedule: Q01DX001 (ip), vehicle: saline.
Where [2] appears, read: dose: 200.0 mg/kg/injection, schedule: Q01DX001 (ip), vehicle: saline.
The mark [3] stands for this setting: dose: 50.0 mg/kg/injection, schedule: Q01DX009 (ip), vehicle: Klucel (hydroxypropylcellulose) (HPC).
Setting [4] is: dose: 100.0 mg/kg/injection, schedule: Q01DX009 (ip), vehicle: Klucel (hydroxypropylcellulose) (HPC).
The mark [5] stands for this setting: dose: 100.0 mg/kg/injection, schedule: Q04DX003 (ip), vehicle: Klucel (hydroxypropylcellulose) (HPC).
Where [6] appears, read: dose: 200.0 mg/kg/injection, schedule: Q04DX003 (ip), vehicle: Klucel (hydroxypropylcellulose) (HPC).
Where [7] appears, read: dose: 100.0 mg/kg/injection, schedule: Q04DX003 (ip), vehicle: saline with Tween-80.
The mark [8] stands for this setting: dose: 200.0 mg/kg/injection, schedule: Q04DX003 (ip), vehicle: saline with Tween-80.
Setting [9] is: dose: 200.0 mg/kg/injection, schedule: Q01DX009 (ip), vehicle: Klucel (hydroxypropylcellulose) (HPC).
[10] abbreviates: dose: 400.0 mg/kg/injection, schedule: Q01DX009 (ip), vehicle: Klucel (hydroxypropylcellulose) (HPC).
Setting [11] is: dose: 400.0 mg/kg/injection, schedule: Q04DX003 (ip), vehicle: Klucel (hydroxypropylcellulose) (HPC).

Turning to `[BH3-][NH2+]c1cccc([NH2+][BH3-])c1`, the T/C is, setting by setting: under setting [1], 100 % of control; under setting [2], 96 % of control; (dose: 400.0 mg/kg/injection, schedule: Q01DX001 (ip), vehicle: saline) 94 % of control.

In the case of `CP(c1ccccc1)c1ccccc1`, the T/C is 98 % of control under setting [3], 95 % of control under setting [4], 104 % of control under setting [5] and 114 % of control under setting [6].

Take `O=C(Nc1cccc(C(F)(F)F)c1)c1cccc(C(=O)Nc2cccc(C(F)(F)F)c2)c1`: the T/C (dose: 12.5 mg/kg/injection, schedule: Q04DX003 (ip), vehicle: saline with Tween-80) is 96 % of control; the T/C (dose: 25.0 mg/kg/injection, schedule: Q04DX003 (ip), vehicle: saline with Tween-80) was 91 % of control; the T/C (dose: 50.0 mg/kg/injection, schedule: Q04DX003 (ip), vehicle: saline with Tween-80) is 90 % of control.

`CC(=O)OCC1OC(N2C(=O)NC(=O)C3C4OC(=O)OC4C32)C(OC(C)=O)C1OC(C)=O` (centres undefined): the T/C was 108 % of control (dose: 25.0 mg/kg/injection, schedule: Q01DX005 (ip), vehicle: other); 100 % of control (dose: 50.0 mg/kg/injection, schedule: Q01DX005 (ip), vehicle: other); 106 % of control (dose: 100.0 mg/kg/injection, schedule: Q01DX005 (ip), vehicle: other); 106 % of control (dose: 200.0 mg/kg/injection, schedule: Q01DX005 (ip), vehicle: other); 108 % of control (dose: 400.0 mg/kg/injection, schedule: Q01DX005 (ip), vehicle: other).

For the compound `CC(C)C(N)(CCCN(C)C)c1cccc2ccccc12` (centres undefined), the T/C (dose: 100.0 mg/kg/injection, schedule: Q04DX002 (ip), vehicle: saline with Tween-80) is 98 % of control.

`CSC(N(C)C)=[N+](C)C`: the T/C (dose: 15.0 mg/kg/injection, schedule: Q01DX Z (ip), vehicle: methylcellulose (MC)) was 101 % of control; the T/C (dose: 30.0 mg/kg/injection, schedule: Q01DX Z (ip), vehicle: methylcellulose (MC)) was 105 % of control; the T/C (dose: 60.0 mg/kg/injection, schedule: Q01DX Z (ip), vehicle: methylcellulose (MC)) was 105 % of control; the T/C (dose: 60.0 mg/kg/injection, schedule: Q01DX Z (oral), vehicle: methylcellulose (MC)) is 95 % of control; the T/C under setting [7] is 100 % of control; the T/C (dose: 120.0 mg/kg/injection, schedule: Q01DX Z (ip), vehicle: methylcellulose (MC)) was 103 % of control. The T/C runs as follows: (dose: 120.0 mg/kg/injection, schedule: Q01DX Z (oral), vehicle: methylcellulose (MC)) 97 % of control; under setting [8], 107 % of control.

In the case of `CSc1nnc([N+](=O)[O-])s1`, the T/C was 94 % of control (dose: 6.25 mg/kg/injection, schedule: Q01DX009 (ip), vehicle: Klucel (hydroxypropylcellulose) (HPC)) and 90 % of control (dose: 12.5 mg/kg/injection, schedule: Q01DX009 (ip), vehicle: Klucel (hydroxypropylcellulose) (HPC)).

Turning to `COc1ccc(N)cc1NC(C)=O`, the T/C is, setting by setting: under setting [1], 102 % of control; under setting [2], 110 % of control.

In the case of `CCOC(=O)C(C(C)=O)C(c1ccc(N(C)C)cc1)C(C(C)=O)C(=O)OCC` (centres undefined), the T/C is, setting by setting: (dose: 25.6 mg/kg/injection, schedule: Q04DX002 (ip), vehicle: saline with Tween-80) 97 % of control; (dose: 64.0 mg/kg/injection, schedule: Q04DX002 (ip), vehicle: saline with Tween-80) 93 % of control; under setting [7], 89 % of control; (dose: 160.0 mg/kg/injection, schedule: Q04DX002 (ip), vehicle: saline with Tween-80) 93 % of control; under setting [8], 92 % of control; (dose: 400.0 mg/kg/injection, schedule: Q04DX002 (ip), vehicle: saline with Tween-80) 89 % of control. Moreover, the T/C (dose: 400.0 mg/kg/injection, schedule: Q04DX003 (ip), vehicle: saline with Tween-80) was 95 % of control.

For the compound `COc1ccc(-c2c(N)nc(=S)[nH]c2C(=O)O)cc1`, the T/C is 97 % of control under setting [4]; 100 % of control under setting [5]; 94 % of control under setting [9]; 101 % of control under setting [6]; 103 % of control under setting [10]; 106 % of control under setting [11].

`CC12C3CCC(C3)C1(O)C2S(=O)(=O)N1CCCCC1` (centres undefined): the T/C by setting is: (dose: 100.0 mg/kg/injection, schedule: Q01DX009 (ip), vehicle: saline) 110 % of control; (dose: 200.0 mg/kg/injection, schedule: Q01DX009 (ip), vehicle: saline) 104 % of control.

Regarding `C[Si](C)Cc1cccc(F)c1`, the T/C under setting [5] is 105 % of control, the T/C under setting [6] is 105 % of control and the T/C under setting [11] was 100 % of control.

Turning to `CC1CN=C(c2cccc(NC(=O)Nc3ccc(NC(=O)Nc4cccc(C5=NCC(C)N5)c4)cc3)c2)N1` (centres undefined), the T/C (dose: 4.5 mg/kg/injection, schedule: Q01DX Z (ip), vehicle: carboxymethylcellulose (CMC)) was 118 % of control; the T/C (dose: 36.0 mg/kg/injection, schedule: Q01DX Z (ip), vehicle: carboxymethylcellulose (CMC)) was 202 % of control and 217 % of control; the T/C (dose: 45.0 mg/kg/injection, schedule: Q01DX Z (ip), vehicle: carboxymethylcellulose (CMC)) is 153 % of control; the T/C (dose: 62.0 mg/kg/injection, schedule: Q01DX Z (oral), vehicle: carboxymethylcellulose (CMC)) was 113 % of control; the T/C (dose: 63.0 mg/kg/injection, schedule: Q01DX Z (ip), vehicle: carboxymethylcellulose (CMC)) is 112 % of control; the T/C (dose: 72.0 mg/kg/injection, schedule: Q01DX Z (ip), vehicle: carboxymethylcellulose (CMC)) is 101 % of control and 111 % of control. The T/C reads like this: (dose: 125.0 mg/kg/injection, schedule: Q01DX Z (oral), vehicle: carboxymethylcellulose (CMC)) 113 % of control; (dose: 250.0 mg/kg/injection, schedule: Q01DX Z (oral), vehicle: carboxymethylcellulose (CMC)) 115 % of control; (dose: 500.0 mg/kg/injection, schedule: Q01DX Z (oral), vehicle: carboxymethylcellulose (CMC)) 109 % of control.

Regarding `CCCCCCCCCCSS(=O)(=O)O`, the T/C (dose: 100.0 mg/kg/injection, schedule: Q01DX001 (ip), vehicle: other) is 98 % of control and the T/C (dose: 400.0 mg/kg/injection, schedule: Q01DX001 (ip), vehicle: other) is 86 % of control.

For the compound `O=[N+]([O-])c1cc(CN2CCCCC2)c(O)c2cccnc12`, the T/C reads like this: (dose: 75.0 mg/kg/injection, schedule: Q01DX001 (ip), vehicle: saline) 101 % of control; (dose: 150.0 mg/kg/injection, schedule: Q01DX001 (ip), vehicle: saline) 106 % of control; (dose: 300.0 mg/kg/injection, schedule: Q01DX001 (ip), vehicle: saline) 101 % of control.

For `CCSCCO`, the T/C was 92 % of control (dose: 100.0 mg/kg/injection, schedule: Q04DX003 (ip), vehicle: saline); 102 % of control (dose: 200.0 mg/kg/injection, schedule: Q04DX003 (ip), vehicle: saline); 100 % of control (dose: 400.0 mg/kg/injection, schedule: Q04DX003 (ip), vehicle: saline).

`Cc1cc(C)nc(NS(=O)(=O)c2ccc(NC(=O)Nc3ccc(F)cc3F)cc2)n1`: the T/C is, setting by setting: (dose: 50.0 mg/kg/injection, schedule: Q01DX009 (ip), vehicle: saline with Tween-80) 96 % of control; (dose: 100.0 mg/kg/injection, schedule: Q01DX009 (ip), vehicle: saline with Tween-80) 93 % of control; (dose: 200.0 mg/kg/injection, schedule: Q01DX009 (ip), vehicle: saline with Tween-80) 101 % of control.

On to `CC(=O)c1ccc(Oc2ccc([N+](=O)[O-])cc2)cc1`, for which the T/C under setting [5] was 98 % of control, the T/C under setting [6] was 96 % of control and the T/C under setting [11] is 101 % of control.

Consider `S=P(NCc1ccccc1)(NCc1ccccc1)NCc1ccccc1`, for which the T/C (dose: 100.0 mg/kg/injection, schedule: Q04DX002 (ip), vehicle: gum acacia) was 97 % of control; the T/C (dose: 200.0 mg/kg/injection, schedule: Q04DX002 (ip), vehicle: gum acacia) is 97 % of control; the T/C (dose: 400.0 mg/kg/injection, schedule: Q04DX002 (ip), vehicle: gum acacia) was 94 % of control.

For the compound `Nc1ccc(F)cc1[N+](=O)[O-]`, the T/C by setting is: under setting [3], 106 % of control; under setting [4], 93 % of control; under setting [5], 105 % of control; under setting [9], 95 % of control; under setting [6], 94 % of control; under setting [10], 90 % of control. The T/C under setting [11] was 91 % of control.
